Laboratory results reported in patent US20070092546A1, “Thiamin based insect repellant” (Violet Fire, LLC, priority 2005, published 2007).
Structures can show the parent of a compound that is named as a salt. Where two headings read alike, the source gives them in different places.

Legend:
[1] = tested on: insects; conditions: stated without test data
Excerpt: Thiamin hydrochloride is soluble in water and glycerin and other polyhydric alcohols.

[2] = 100 mg/day consumed over a number of days; cited from earlier work
[3] = tested on: mosquitoes and other biting insects; conditions: ingested doses of up to 100 mg/day for several weeks; cited from earlier work
[4] = cited from earlier work

Row | Compound | insect repellant properties [1] | adverse effects of ingestion [2] | insect repellency on the human skin [3] | solubility ([4]; in organic solvents) | solubility ([4]; in water and glycerin and other polyhydric alcohols)
1 | Thiamin mononitrate | have insect repellant properties |  |  |  | 
2 | Cc1ncc(C[n+]2csc(CCO)c2C)c(N)n1 [thiamin, Thiamin] |  | can cause anaphylactic stock, allergic reactions and skin rashes | will repel mosquitoes and other biting insects from the skin |  | 
3 | Cc1ncc(C[n+]2csc(CCO)c2C)c(N)n1 [Thiamin hydrochloride] | have insect repellant properties |  |  | not readily soluble | soluble
